Measurements: ChEMBL document CHEMBL2113921, “Open Source Malaria Deposition 1. http://malaria.ourexperiment.org” (2013)

The compounds below were run on Plasmodium falciparum (assay: OSM: Inhibition of Plasmodium falciparum 3D7 growth. IC50 values determined from 21 point dose response curves. Avery Group Griffith.).
Assay type: functional, organism-based

SMILES | IC50 [µM]
Cc1cc(C(=O)CCC(=O)N(C)C)c(C)n1-c1ccc(F)cc1 | > 40
CN(C)C(=O)n1cnc(SCc2ccccc2)n1 | 0.438
COC(=O)[C@@H]1COC(c2cc(C)n(-c3ccc(F)cc3)c2C)=N1 | > 40
Cc1cc(C(=O)N(C)C)c(C)n1-c1ccc(F)cc1 | > 40
Cc1ccc(Nc2ncnc3ccsc23)cc1S(=O)(=O)N(C)C | > 40
Cc1cc(CNC2CCN(Cc3ccccc3)CC2)c(C)n1-c1ccc(F)cc1 | 4.8
Cc1cc(C(=O)N(C)CC(N)=O)c(C)n1-c1ccc(F)cc1 | > 40
Cc1c(-c2nc(C(N)=O)co2)cnn1-c1ccc(F)cc1 | > 40
CNC(=O)COC(=O)c1cc(C)n(-c2ccc(F)cc2)c1C | 9.4
NS(=O)(=O)c1ccc(CNc2nc(-c3ccsc3)nc3ccccc23)cc1 | > 40
CCN(CC(=O)Nc1c(F)cccc1F)C(=O)c1cc(C)n(-c2ccc(F)cc2)c1C | > 40
NS(=O)(=O)c1cccc(CNc2ncnc3ccsc23)c1 | > 40
Cc1cc(C(=O)OC(C)(C)C(N)=O)c(C)n1-c1ccc(F)cc1 | > 40
CN(C)C(=O)n1cnc(S(=O)(=O)N(C)c2ccccc2)n1 | 0.333
COC(=O)[C@H](CO)NC(=O)c1cc(C)n(-c2ccc(F)cc2)c1C | > 40
CCOc1ccc(Nc2ncnc3ccsc23)cc1S(=O)(=O)N(C)C | > 40
CCOC(=O)C(C)OC(=O)c1cc(C)n(-c2ccc(F)cc2)c1C (stereo not drawn) | > 40
O=S(=O)(Nc1ncnc2sc(-c3ccccc3)cc12)c1ccccc1 | > 40
COc1ccc(S(=O)(=O)N2CCC(Nc3ncnc4ccsc34)CC2)cc1 | > 40
NC(=O)COC(=O)c1cnn(-c2ccc(F)cc2)c1 | > 40
Cc1cc(C(=O)OCC(=O)N(C)C)c(C)n1-c1ccc(F)cc1 | 11.3
Cc1cc(C(=O)NCC(=O)N(C)C)c(C)n1-c1ccccc1 | > 40
Cc1cc(-c2nc(C(=O)O)co2)c(C)n1-c1ccc(F)cc1 | > 40

SMILES | IC50 [µM]
Cc1cc(C(=O)N(C(=O)NC2CCCCC2)C2CCCCC2)c(C)n1-c1ccc(F)cc1 | 7.8
CNC(=O)CN1CCC(NCc2cc(C)n(-c3ccc(Cl)cc3)c2C)CC1 | 14.7
Oc1ncnc2cc(I)sc12 | > 40
Nc1ncnc2ccsc12 | > 40
CCc1ccc(-n2c(C)cc(CN3CCC(C(=O)O)CC3)c2C)cc1 | > 40
Cc1cc(CN(C)CC(N)=O)c(C)n1-c1ccc(F)cc1 | > 40
CNS(=O)(=O)c1ccc(CNc2ncnc3cc(-c4ccc(OC)cc4)sc23)s1 | 17.6
Cc1cc(CNCC(N)=O)c(C)n1-c1ccc(F)cc1 | > 40
Cc1cc(C(=O)OC(C)C(=O)O)c(C)n1-c1ccc(F)cc1 (stereo not drawn) | > 40
c1ccc(CSc2nc[nH]n2)cc1 | > 40
CNC(=O)CCC(=O)c1cc(C)n(-c2ccc(F)cc2)c1C | > 40
Cc1cc(C(=O)N2CCNC(=O)C2)c(C)n1-c1ccccc1 | > 40
CCNC(=O)C1CC(N)CN1Cc1cc(C)n(-c2ccccc2Cl)c1C (stereo not drawn) | 24.7
c1nc(N2CCOCC2)c2sccc2n1 | > 40
Cc1c(C(=O)OCC(N)=O)cnn1-c1ccccc1 | > 40
COC(=O)c1coc(-c2cc(C)n(-c3ccc(F)cc3)c2C)n1 | > 40
COC(=O)c1sccc1NC=O | > 40
Cc1c(-c2nc(C(=O)O)co2)cnn1-c1ccc(F)cc1 | > 40
Cc1cc(C(=O)CCC(=O)O)c(C)n1-c1ccc(F)cc1 | > 40
COC(=O)c1coc(-c2cnn(-c3ccc(F)cc3)c2C)n1 | > 40
CC(Nc1ncnc2ccsc12)c1cccc(S(N)(=O)=O)c1 (stereo not drawn) | > 40
COc1cccc(NC(=O)CSc2nnc(-c3cc(C)n(-c4ccccc4)c3C)o2)c1 | > 40
Clc1ncnc2ccsc12 | 9.4

Each compound was assayed on Plasmodium falciparum (assay: OSM: Inhibition of Plasmodium falciparum 3D7 growth using a SYBR green I fluorescence based assay. GSK Tres Cantos.).
Assay type: functional, organism-based

SMILES | IC50 [µM]
O=C1C(O)=C([C@H]2CC[C@H](c3ccc(Cl)cc3)CC2)C(=O)c2ccccc21 [ATOVAQUONE] | 0.001
C[C@H]1[C@H](OC(=O)CCC(=O)O)O[C@@H]2O[C@@]3(C)CC[C@H]4[C@H](C)CC[C@@H]1[C@@]24OO3 [ARTESUNATE] | 0.019
